AC1.4 data for 27 compounds are collected here from US11780826B2 (Amgen Inc., priority 2017, dated 2023).

SMILES strings stand for the structures.

The assay deals with Bovine cardiac myofibrils. Put plainly: In vitro model of dose-dependent myofibril ATPase modulation (AC1.4, pyruvate kinase/lactate dehydrogenase-coupled ATPase assay at pCa25). As to conditions: concentration at which ATPase activity was 1.4-fold higher than the bottom of the dose curve, mean of a minimum of two independent tests. It counts as biochemical. In short, it runs like this: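 ATP turnover tracked as NADH absorbance loss at 340 nm, coupled via pyruvate kinase/lactate dehydrogenase, with 1 mM ATP, 2 mM MgCl2 and 12 mM K-PIPES at pH 6.80 (22° C) under EGTA/CaCl2 calcium buffering. Substrate was detergent-treated bovine cardiac myofibrils; 4-parameter curve fit, AC1.4 averaged over at least two runs.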
In turn, `O=C(c1ccccc1)c1cccc(C(=O)N2[C@@H](C(=O)N[C@@H](c3cc(F)c(Cl)cc3F)C3CC3)C[C@H]3C[C@H]32)c1` [Example 608, (1R,3R,5R)-2-(3-benzoylbenzoyl)-N-((R)-(4-chloro-2,5-difluorophenyl)(cyclopropyl)methyl)-2-azabicyclo[3.1.0]hexane-3-carboxamide] yielded an AC1.4 of 3.7405 µM.
With `Cc1ccc(Cl)c(CNC(=O)[C@H]2CCCN2C(=O)[C@H]2CCCN(S(=O)(=O)N3CC(C#N)C3)C2)c1` [Example 660, N-(2-chloro-5-methylbenzyl)-1-(((3S)-1-((3-cyano-1-azetidinyl)sulfonyl)-3-piperidinyl)carbonyl)-D-prolinamide] the figure was 4.606 µM.
`N#CC1CN(S(=O)(=O)c2cccc(C(=O)N3CCC[C@@H]3C(=O)NCc3ccc(C4CC4)cc3)c2)C1` [Example 283, 1-((3-((3-cyano-1-azetidinyl)sulfonyl)phenyl)carbonyl)-N-(4-cyclopropylbenzyl)-D-prolinamide] yielded an AC1.4 of 0.7288 µM.
`CS(=O)(=O)C1CN(S(=O)(=O)N2CCC[C@H](C(=O)N3CCC[C@@H]3C(=O)NCc3ccc(C(F)(F)F)cc3)C2)C1` [Example 72, 1-(((3S)-1-((3-(methylsulfonyl)-1-azetidinyl)sulfonyl)-3-piperidinyl)carbonyl)-N-(4-(trifluoromethyl)benzyl)-D-prolinamide] came in with an AC1.4 of 0.09025 µM.
For `N#CC1CN(S(=O)(=O)N2CCC[C@H](C(=O)N3CCC[C@@H]3C(=O)NCc3ccc(C(F)(F)F)nc3)C2)C1` [Example 410, 1-(((3S)-1-((3-cyano-1-azetidinyl)sulfonyl)-3-piperidinyl)carbonyl)-N-((6-(trifluoromethyl)-3-pyridinyl)methyl)-D-prolinamide], the AC1.4 was 1.4853 µM.
In turn, `CN(C)S(=O)(=O)c1cccc(C(=O)N2CCCCC2C(=O)NCc2ccc(C(F)(F)F)cc2)c1` (stereo not drawn) [Example 677, 1-(3-(N,N-dimethylsulfamoyl)benzoyl)-N-(4-(trifluoromethyl)benzyl)piperidine-2-carboxamide] had an AC1.4 of 4.987 µM.
In turn, `N#CC1CN(S(=O)(=O)N2CCC[C@H](C(=O)N3CCC[C@@H]3C(=O)NC(c3ccccc3)c3ccc(Cl)cc3)C2)C1` (stereo partly drawn) [Example 268, (2R)-N-((4-chlorophenyl)(phenyl)methyl)-1-((S)-1-((3-cyanoazetidin-1-yl)sulfonyl)piperidine-3-carbonyl)pyrrolidine-2-carboxamide] showed an AC1.4 of 0.6764 µM.
`CCS(=O)(=O)c1cncc(C(=O)N2[C@@H](C(=O)N[C@@H](c3cc(F)c(Cl)cc3F)C3CC3)C[C@H]3C[C@H]32)c1` [Example 160, (1R,3R,5R)-N-((R)-(4-chloro-2,5-difluorophenyl)(cyclopropyl)methyl)-2-((5-(ethylsulfonyl)-3-pyridinyl)carbonyl)-2-azabicyclo[3.1.0]hexane-3-carboxamide]: the AC1.4 worked out at 0.274 µM.
`CS(=O)(=O)c1cccc(C(=O)N2C[C@@H](F)C[C@@H]2C(=O)N[C@@H](c2ccc(Cl)cc2F)C2COC2)c1` [Example 352, (4S)-N-((R)-(4-chloro-2-fluorophenyl)(3-oxetanyl)methyl)-4-fluoro-1-(3-(methylsulfonyl)benzoyl)-D-prolinamide] came in with an AC1.4 of 0.9758 µM.
As for `O=C(N[C@@H](c1ccc(C(F)(F)F)cc1F)C1CC1)[C@H]1C[C@H]2C[C@H]2N1C(=O)c1cc(C(F)(F)F)ccn1` [Example 573, (1R,3R,5R)-N-((R)-cyclopropyl(2-fluoro-4-(trifluoromethyl)phenyl)methyl)-2-((4-(trifluoromethyl)-2-pyridinyl)carbonyl)-2-azabicyclo[3.1.0]hexane-3-carboxamide], the AC1.4 was 3.224 µM.
Regarding `N#CC1CC(S(=O)(=O)c2cccc(C(=O)N3CCCC[C@@H]3C(=O)NCc3ccc(C(F)(F)F)nc3)c2)C1` (stereo partly drawn) [Example 460, (R)-1-(3-((3-cyanocyclobutyl)sulfonyl)benzoyl)-N-((6-(trifluoromethyl)pyridin-3-yl)methyl)piperidine-2-carboxamide], the AC1.4 amounted to 1.915 µM.
`C[C@@H](NC(=O)[C@H]1CCCN1C(=O)[C@H]1CCCN(S(=O)(=O)N2CC(C#N)C2)C1)c1ccc(C(F)F)cc1F` [Example 104, 1-(((3S)-1-((3-cyano-1-azetidinyl)sulfonyl)-3-piperidinyl)carbonyl)-N-((1R)-1-(4-(difluoromethyl)-2-fluorophenyl)ethyl)-D-prolinamide] yielded an AC1.4 of 0.1611 µM.
Consider `CC[C@@H](NC(=O)[C@H]1CCCN1C(=O)c1cccc(S(=O)(=O)N2CC(C#N)C2)c1)c1ccc(C(F)(F)F)cc1` [Example 3, 1-(3-((3-cyano-1-azetidinyl)sulfonyl)benzoyl)-N-((1R)-1-(4-(trifluoromethyl)phenyl)propyl)-D-prolinamide], for which the AC1.4 was found to be 0.01635 µM.
`C[C@H](NC(=O)[C@H]1CCCN1C(=O)c1cccc(S(=O)(=O)N2CC(C#N)C2)c1)c1ccc(Cl)cc1` [Example 330, N-((1S)-1-(4-chlorophenyl)ethyl)-1-((3-((3-cyano-1-azetidinyl)sulfonyl)phenyl)carbonyl)-D-prolinamide] registered an AC1.4 of 0.8972 µM.
With `O=C(N[C@@H](c1cc(F)c(Cl)cc1F)C1COC1)[C@H]1C[C@@H](O)CN1C(=O)c1ccnc(C(F)F)c1` [Example 501, (4R)-N-((R)-(4-chloro-2,5-difluorophenyl)(3-oxetanyl)methyl)-1-((2-(difluoromethyl)-4-pyridinyl)carbonyl)-4-hydroxy-D-prolinamide] the figure was 2.3495 µM.
With `CCC(NC(=O)[C@H]1CCCN1C(=O)[C@H]1CCCN(S(=O)(=O)N2CC(C#N)C2)C1)c1ccc(OC)cc1` (stereo partly drawn) [Example 625, (2R)-1-((S)-1-((3-cyanoazetidin-1-yl)sulfonyl)piperidine-3-carbonyl)-N-(1-(4-methoxyphenyl)propyl)pyrrolidine-2-carboxamide] the figure was 4.01 µM; with `CS(=O)(=O)c1cccc(C(=O)N2CCC[C@@H]2C(=O)N[C@@H](c2ccc(C(F)(F)F)cc2F)C2(F)COC2)c1` [Example 673, N-((S)-(3-fluoro-3-oxetanyl)(2-fluoro-4-(trifluoromethyl)phenyl)methyl)-1-(3-(methylsulfonyl)benzoyl)-D-prolinamide], 4.897 µM.
The compound `N#CC1CN(S(=O)(=O)N2CCC[C@H](C(=O)N3CCC[C@@H]3C(=O)NCc3ccc(Cl)cc3F)C2)C1` [Example 70, N-(4-chloro-2-fluorobenzyl)-1-(((3S)-1-((3-cyano-1-azetidinyl)sulfonyl)-3-piperidinyl)carbonyl)-D-prolinamide] came in with an AC1.4 of 0.08855 µM.
In the case of `N#CC1CN(S(=O)(=O)N2CCN[C@H](C(=O)N3CCC[C@@H]3C(=O)NCc3ccc(Cl)c(Cl)c3)C2)C1` [Example 257, 1-(((2S)-4-((3-cyano-1-azetidinyl)sulfonyl)-2-piperazinyl)carbonyl)-N-(3,4-dichlorobenzyl)-D-prolinamide], the AC1.4 stood at 0.6321 µM.
Turning to `N#C[C@H]1C[C@H](S(=O)(=O)c2cccc(C(=O)N3CCCC[C@@H]3C(=O)NCc3ccc(Cl)nc3)c2)C1` [Example 420, (2R)-N-((6-chloro-3-pyridinyl)methyl)-1-((3-((trans-3-cyanocyclobutyl)sulfonyl)phenyl)carbonyl)-2-piperidinecarboxamide], the AC1.4 was 1.5455 µM.
As for `O=C(N[C@@H](c1ccc(C(F)(F)F)cc1F)C1CC1)[C@H]1CCCN1C(=O)c1cccc(C2CC2)c1` [Example 369, 1-(3-cyclopropylbenzoyl)-N-((R)-cyclopropyl(2-fluoro-4-(trifluoromethyl)phenyl)methyl)-D-prolinamide], the AC1.4 stood at 1.1795 µM.
`CS(=O)(=O)c1cncc(C(=O)N2C[C@@H](F)C[C@@H]2C(=O)N[C@@H](c2cc(F)c(C(F)(F)F)cc2F)C2CC2)c1` [Example 430, (4S)-N-((R)-cyclopropyl(2,5-difluoro-4-(trifluoromethyl)phenyl)methyl)-4-fluoro-1-((5-(methylsulfonyl)-3-pyridinyl)carbonyl)-D-prolinamide] returned an AC1.4 of 1.474 µM.
With `CS(=O)(=O)c1ccnc(C(=O)N2C[C@@H](F)C[C@@H]2C(=O)N[C@@H](c2cc(F)c(Cl)cc2F)C2CC2)c1` [Example 269, (4S)-N-((R)-(4-chloro-2,5-difluorophenyl)(cyclopropyl)methyl)-4-fluoro-1-((4-(methylsulfonyl)-2-pyridinyl)carbonyl)-D-prolinamide] the figure was 0.6767 µM; with `Cc1cnn(C)c1C(=O)N1[C@@H](C(=O)N[C@@H](c2cc(F)c(C(F)(F)F)cc2F)C2COC2)C[C@H]2C[C@H]21` [Example 818, (1R,3R,5R)-N-((R)-(2,5-difluoro-4-(trifluoromethyl)phenyl)(oxetan-3-yl)methyl)-2-(1,4-dimethyl-1H-pyrazole-5-carbonyl)-2-azabicyclo[3.1.0]hexane-3-carboxamide], 4.155 µM.
For the compound `CCCCCC1CN(S(=O)(=O)N2CCC[C@H](C(=O)N3CCC[C@@H]3C(=O)NCc3ccc(C(F)(F)F)cc3)C2)C1` [Example 735, 1-(((3S)-1-((3-pentyl-1-azetidinyl)sulfonyl)-3-piperidinyl)carbonyl)-N-(4-(trifluoromethyl)benzyl)-D-prolinamide], the AC1.4 worked out at 7.0265 µM.
On to `CS(=O)(=O)c1cccc(C(=O)N2CSC[C@@H]2C(=O)N[C@@H](c2ccc(C(F)(F)F)cc2F)C2CC2)c1` [Example 129, (4S)-N-((R)-cyclopropyl(2-fluoro-4-(trifluoromethyl)phenyl)methyl)-3-(3-(methylsulfonyl)benzoyl)-1,3-thiazolidine-4-carboxamide], for which the AC1.4 amounted to 0.2119 µM.
With `O=C(NCc1ccc(C(F)(F)F)cc1)[C@H]1CCCN1C(=O)[C@H]1CCCN(S(=O)(=O)N2CC(CC(F)(F)F)C2)C1` [Example 787, 1-(((3S)-1-((3-(2,2,2-trifluoroethyl)-1-azetidinyl)sulfonyl)-3-piperidinyl)carbonyl)-N-(4-(trifluoromethyl)benzyl)-D-prolinamide] the figure was 8.931 µM.
